Key:
[1] = molecular target: T1, Human recombinant PTP1B (hPTP1B) (Homo sapiens, UniProt P18031); assay type: biochemical
T1 construct: made in house
T1 sequence (P18031 1-435): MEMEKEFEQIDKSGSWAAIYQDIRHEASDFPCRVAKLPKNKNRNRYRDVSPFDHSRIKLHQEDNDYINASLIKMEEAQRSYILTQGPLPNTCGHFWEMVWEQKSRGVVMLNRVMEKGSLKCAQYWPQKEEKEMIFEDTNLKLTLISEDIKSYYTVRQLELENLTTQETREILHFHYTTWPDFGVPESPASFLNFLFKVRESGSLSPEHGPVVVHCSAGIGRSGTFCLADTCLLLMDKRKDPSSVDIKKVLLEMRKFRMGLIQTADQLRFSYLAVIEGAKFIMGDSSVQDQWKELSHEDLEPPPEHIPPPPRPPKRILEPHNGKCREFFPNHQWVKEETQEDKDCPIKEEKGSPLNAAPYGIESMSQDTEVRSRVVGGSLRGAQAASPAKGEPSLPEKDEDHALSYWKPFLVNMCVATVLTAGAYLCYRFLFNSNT

[2] = system: rat hepatic microsomal PTPases; conditions: 50 μM compound

Row | Molecule | IC50 [1] | % Change from Control [2]
1 | Cc1sc2c(Br)c3ccccc3c(-c3ccc(O[C@H](Cc4ccccc4)C(=O)O)c(F)c3)c2c1C [Example 52, (R)-2-[4-(9-Bromo-2,3-dimethyl-naphtho[2,3-b]thiophen-4-yl)-2-fluoro-phenoxy]-3-phenyl-propionic acid] | 287 nM | −87.66%
2 | Cc1sc2c(Br)c3ccccc3c(-c3cc(Br)c(OC(Cc4ccccc4)C(=O)O)c([N+](=O)[O-])c3)c2c1C (stereo not shown) [Example 38, [2-Bromo-4-(9-bromo-2,3-dimethyl-naphtho[2,3-b]thiophen-4-yl)-2-nitro-phenoxy]-3-phenyl-propionic acid] | 299 nM | −57.74%
3 | Cc1cc(-c2c3ccccc3c(Br)c3sc(C)c(C)c23)cc(C)c1O[C@H](Cc1ccccc1)C(=O)NCC(=O)O [Example 62, {(2R)-2-[4-(9-Bromo-2,3-dimethyl-naphtho[2,3-b]thiophen-4-yl)-2,6-dimethyl-phenoxy]-3-phenyl-propionylamino}-acetic acid] | 28 nM | 
4 | CCc1cc(-c2c3ccccc3cc3sc(C)c(C)c23)cc(CC)c1O[C@H](Cc1ccccc1)C(=O)NCC(=O)O [Example 68, {(2R)-2-[4-(2,3 -Dimethyl-naphtho[2,3-b]thiophen-4-yl)-2,6-diethyl-phenoxy]-3-phenyl-propionylamino}-acetic acid] | 80 nM | 
5 | Cc1sc2cc3ccccc3c(-c3ccc(O[C@H](Cc4ccccc4)C(=O)O)c(C(C)C)c3)c2c1C [Example 41, (R)-2-[4-(2,3-dimethyl-naphtho[2,3-b]thiophen-4-yl)-2-isopropyl-phenoxy]-3-phenyl-propionic acid] | 729 nM | −39.60%
6 | CCCc1cc(-c2c3ccccc3c(Br)c3sc(C)c(C)c23)ccc1O[C@H](Cc1ccccc1)C(=O)O [Example 83, (R)-2-[4-(9-Bromo-2-,3-dimethyl-naphtho[2,3-b]thiophen-4-yl)-2-propyl-phenoxy]-3-phenyl-propionic acid] | 130 nM | 
7 | Ammonium molybdate tetrahydrate [reference compound] | 8700 nM | 
8 | CCc1cc(-c2c3ccccc3cc3sc(C)c(C)c23)ccc1O[C@H](Cc1ccccc1)C(=O)O [Example 76, (R)-2-[4-(2-,3-Dimethyl-naphtho[2,3-b]thiophen-4-yl)-2-ethyl-phenoxy]-3-phenyl-propionic acid] | 450 nM | 
9 | Cc1sc2cc3ccccc3c(-c3cc(C(C)C)c(O[C@H](Cc4ccccc4)C(=O)O)c(C(C)C)c3)c2c1C [Example 50, (R)-2-[4-(2,3-Dimethyl-naphtho[2,3-b]thiophen-4-yl)-2,6-diisopropyl-phenoxy]-3-phenyl-propionic acid] | 457 nM | −81.27%
10 | CCN(CC)Cc1sc2c(Br)c3ccccc3c(-c3cc(Br)c(O[C@H](Cc4ccccc4)C(=O)O)c(Br)c3)c2c1C [Example 37, (R)-2-[2,6-Dibromo-4-(9-bromo-2-diethylaminomethyl-3-methyl-naphtho[2,3-b]thiophen-4-yl)-phenoxy]-3-phenyl-propionic acid] | 352 nM | −49.83%
11 | [2-Bromo-4-(9-bromo-2,3-dimethyl-naphtho[2,3-b]thiophen-4-yl)-2-nitro-phenoxy]-acetic acid [Example 24] |  | −65.31%
12 | Cc1sc2c(Sc3ccccc3)c3ccccc3c(-c3cc(Br)c(O[C@H](C)C(=O)O)c(Br)c3)c2c1C [Example 34, (R)-2-[2,6-Dibromo-4-(2,3-dimethyl-9-phenylsulfanyl-naphtho[2,3-b]thiophen-4-yl)-phenoxy]-propionic acid] | 100 nM | −63.01%
13 | Cc1c(CN2CCOCC2)sc2c(Br)c3ccccc3c(-c3cc(Br)c(OC(C)C(=O)O)c(Br)c3)c12 (stereo not shown) [Example 36, 2-[2,6-Dibromo-4-(9-bromo-3-methyl-2-morpholin-4-ylmethyl-naphtho[2,3-b]thiophen-4-yl)-phenoxy]-propionic acid] | 1340 nM | −67.00%
14 | CCc1cc(-c2c3ccccc3cc3oc(C)c(C)c23)cc(Br)c1O[C@H](Cc1ccccc1)C(=O)O [Example 79, (R)-2-[2-Bromo-4-(2-,3-dimethyl-naphtho[2,3-b]furan-4-yl)-6-ethyl-phenoxy]-3-phenyl-propionic acid] | 780 nM | 
15 | CCc1cc(-c2c3ccccc3cc3oc(C)c(C)c23)cc(Br)c1O [Example 78, 2-Bromo-4-(2-,3-dimethyl-naphtho[2,3-b]furan-4-yl)-6-ethyl-phenol] | 270 nM | 
16 | Cc1sc2cc3ccccc3c(-c3ccc(O[C@H](Cc4ccccc4)C(=O)O)c(F)c3)c2c1C [Example 51, (R)-2-[4-(2,3-Dimethyl-naphtho[2,3-b]thiophen-4-yl)-2-fluoro-phenoxy]-3-phenyl-propionic acid] | 2210 nM | 
17 | 9-Bromo-4-(3-bromo-methoxy-5-nitro-phenyl)-2,3-dimethyl-naphtho[2,3-b]thiophene [Example 57] | 1900 nM | 
18 | Cc1sc2c(Br)c3ccccc3c(-c3cc(N)c(O)c(Br)c3)c2c1C [Example 23, 2-Amino-6-bromo-4-(9-bromo-2,3-dimethyl-naphtho[2,3-b]thiophen-4-yl)-phenol] | 743 nM | −26.11%
19 | Cc1sc2c(Br)c3ccccc3c(-c3ccc(O[C@H](C)C(=O)O)c(C4CCCC4)c3)c2c1C [Example 72, (R)-2-[4-(9-Bromo-2-,3-dimethyl-naphtho[2,3-b]thiophen-4-yl)-2-cyclopentyl-phenoxy]-propionic acid] | 480 nM | 
20 | Cc1sc2c(Br)c3ccccc3c(-c3ccc(O[C@H](Cc4ccccc4)C(=O)O)cc3)c2c1C [Example 64, (2R)-2-[4-(9-Bromo-2,3-dimethyl-naphtho[2,3-b]thiophen-4-yl)-phenoxy]-3-phenyl-propionic acid] | 390 nM | 
21 | CCc1cc(-c2c3ccccc3c(Br)c3oc(C)c(C)c23)cc(CC)c1O[C@H](Cc1ccccc1)C(=O)O [Example 70, (R)-2-[4-(9-Bromo-2-,3-dimethyl-naphtho[2,3-b]furan-4-yl)-2.6-diethyl-phenoxy]-3-phenyl-propionic acid] | 330 nM | 
22 | Cc1cc(-c2c3ccccc3cc3sc(C)c(C)c23)cc(C)c1O[C@H](Cc1ccccc1)C(=O)O [Example 46, (R)-2-[4-(2,3-Dimethyl-naphtho[2,3-b]thiophen-4-yl)-2,6-dimethyl-phenoxy]-3-phenyl-propionic acid] | 1190 nM | −91.00%
23 | Cc1sc2c(Br)c3ccccc3c(-c3ccc(O[C@H](Cc4ccccc4)C(=O)O)c(C4CCCC4)c3)c2c1C [Example 47] | 95 nM | −68.48%
24 | Cc1sc2cc3ccccc3c(-c3ccc(O[C@H](Cc4ccccc4)C(=O)O)c(C4CCCC4)c3)c2c1C [Example 45, (R)-2-[2-Cyclopentyl-4-(2,3-dimethyl-naphtho[2,3-b]thiophen-4-yl)-phenoxy]-3-phenyl-propionic acid] | 203 nM | −94.50%
25 | Cc1sc2cc3ccccc3c(-c3ccc(O[C@H](C)C(=O)O)c(C4CCCC4)c3)c2c1C [Example 71, (R)-2-[2-Cyclopentyl-4-(2-,3-dimethyl-naphtho[2,3-b]thiophen-4-yl)-phenoxy]-propionic acid] | 1190 nM | 
26 | Cc1oc2cc3ccccc3c(-c3cc(Br)c(O[C@H](Cc4ccccc4)C(=O)O)c(Br)c3)c2c1C [Example 54, (2R)-2-[2,6-Dibromo-4-(2,3-dimethyl-naphtho[2,3-b]furan-4-yl)-phenoxy]-3-phenyl-propionic acid] | 982 nM | 
27 | CCc1cc(-c2c3ccccc3c(Br)c3sc(C)c(C)c23)cc(CC)c1O[C@H](Cc1ccccc1)C(=O)NCC(=O)O [Example 63, {(2R)-2-[4-(9-Bromo-2,3-dimethyl-naphtho[2,3-b]thiophen-4-yl)-2,6-diethyl-phenoxy]-3-phenyl-propionylamino}-acetic acid] | 138 nM | 
28 | Cc1sc2c(Br)c3ccccc3c(-c3cc(C(C)C)c(O[C@H](Cc4ccccc4)C(=O)O)c(C(C)C)c3)c2c1C [Example 55, (2R)-2-[4-(9-Bromo-2,3-dimethyl-naphtho[2.3-b]thiophen-4-yl)-2,6-diisopropyl-phenoxy]-3-phenyl-propionic acid] | 59 nM | 
29 | CCN(CC)Cc1sc2c(Br)c3ccccc3c(-c3cc(C(C)C)c(O[C@H](Cc4ccccc4)C(=O)O)c(C(C)C)c3)c2c1C [Example 88, (2R)-2-[4-(9-Bromo-2-diethylaminomethyl-3-methyl-naphtho[2,3-b]thiophen-4-yl)-2,6-diisopropyl-phenoxy]-3-phenyl-propionic acid] | 320 nM | 

Source: patent US6444670B2 (Wyeth, priority 1998, dated 2002)
